Some results are limits rather than exact numbers.

The IC50 is the concentration that gives 50% inhibition. Read a high IC50 as a need for much substance.

The target of one assay is T1, human CRTH2 (Homo sapiens, UniProt Q9Y5Y4).
T1 sequence (Q9Y5Y4 1-395): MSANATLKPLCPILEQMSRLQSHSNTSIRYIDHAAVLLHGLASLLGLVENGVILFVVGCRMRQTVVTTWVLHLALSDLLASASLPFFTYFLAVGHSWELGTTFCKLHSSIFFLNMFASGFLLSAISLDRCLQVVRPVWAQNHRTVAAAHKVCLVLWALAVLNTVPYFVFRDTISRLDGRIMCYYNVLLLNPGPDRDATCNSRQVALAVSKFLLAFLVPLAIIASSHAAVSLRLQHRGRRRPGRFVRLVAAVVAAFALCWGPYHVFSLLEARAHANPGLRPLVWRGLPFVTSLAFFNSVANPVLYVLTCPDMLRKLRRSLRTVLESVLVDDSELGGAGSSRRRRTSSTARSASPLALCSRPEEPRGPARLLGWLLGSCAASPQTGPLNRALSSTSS
As to the kind of experiment: Human CRTH2 Receptor Binding Assay (whole cell, [3H]ramatroban competition). The note with it: CHO-K1 cells expressing human CRTH2 and G-alpha16; 20 nM [3H]ramatroban; 1 hour, room temperature. Further details: expressed in transfected cells; host or cells: CHO-K1 (co-transfected with G-alpha16). The text has this:
A whole cell receptor binding assay using [^3H]ramatroban as the competing radioactive ligand was employed to evaluate the compound binding activity to human CRTH2. The radioactive ligand [^3H]ramatroban was synthesized according to Sugimoto et. al. (Eur. J. Pharmacol. 524, 30-37, 2005) to a specific activity of 42 Ci/mmol.
A cell line stably expressing human CRTH2 was established by transfecting CHO-K1 cells with two mammalian expression vectors that harbored human CRTH2 and G-alpha16 cDNAs, respectively, using FuGene® 6 transfection reagent (from Roche). Stable clones expressing CRTH2 were selected by staining each clone with BM16 (BD Pharmingen™ from BD Biosciences, a division of Becton, Dickinson and Company), which is a rat monoclonal antibody to human CRTH2. The cells were maintained as monolayer cultures in Ham's F-12 medium containing 10% fetal bovine serum, 100 units/mL penicillin, 100 μg/mL streptomycin, 2 mM glutamine, 0.5 mg/mL G418 (geneticin) for CRTH2, and 0.2 mg/mL hygromycin-B (for G-alpha 16). For whole cell receptor binding assay, the monolayer cells were rinsed once with PBS (phosphate buffered saline), dissociated using ethylenediaminetetraacetate (Versene™ EDTA from Lonza Inc.), and suspended in PBS containing 10 mM MgCl2 and 0.06% BSA (bovine serum albumin) at 1.5×10^6 cells/mL.
The binding reactions (0.2 mL) were performed in 96-well plates at room temperature in PBS containing 1.5×10^5 cells, 10 mM MgCl2, 0.06% BSA, 20 nM [^3H]ramatroban, and test compound at various concentrations. After 1 hour of binding reactions, the cells were harvested on GF™/B filter microplates (microtiter plates with embedded glass fiber from PerkinElmer, Inc.) and washed 5 times with PBS using a Filtermate™ Harvester (a cell harvester that harvests and washes cells from microplates from PerkinElmer, Inc.). The radioactivities bound to the cells were determined using a microplate scintillation counter (TopCount® NXT, from PerkinElmer, Inc.) after adding 50 μL of Microscint™ 20 scintillation fluid (from PerkinElmer, Inc.) to each well of the filter plates. The radioactivity from non-specific binding was determined by replacing compound with 10 μM of 15(R)-15-methyl PGD2 (from Cayman Chemical Company) in the reaction mixtures. The radioactivity bound to the cells in the absence of compound (total binding) was determined by replacing compound with 0.25% of DMSO (dimethyl sulfoxide) in the reaction mixture. Specific binding data were obtained by subtracting the radioactivity of non-specific binding from each binding data.
(§1) The IC50 value is defined as the concentration of the tested compound that is required for 50% inhibition of total specific binding. In order to calculate the IC50 value, the percent inhibition data were determined for 7 concentrations for each compound. The percent inhibition for a compound at each concentration was calculated according to the following formula, [1−(specific binding in the presence of compound)/(total specific binding)]×100. The IC50 value was then obtained by fitting the percent inhibition data to a sigmoidal dose-response (4 parameter logistic) model in the XLfit® software Excel add-in program [from ID Business Solutions Ltd., model 205, where F(x)=(A+(B−A)/(1+((C/x)̂D)))].

In assay [1] the target is T2, thromboxane A2 receptor (TP) (Homo sapiens, UniProt P21731).
T2 construct: using human platelets as the source of the receptor; from tissue; host or cells: human platelets (whole platelets, 5x10^7 per well)
T2 sequence (P21731 1-343): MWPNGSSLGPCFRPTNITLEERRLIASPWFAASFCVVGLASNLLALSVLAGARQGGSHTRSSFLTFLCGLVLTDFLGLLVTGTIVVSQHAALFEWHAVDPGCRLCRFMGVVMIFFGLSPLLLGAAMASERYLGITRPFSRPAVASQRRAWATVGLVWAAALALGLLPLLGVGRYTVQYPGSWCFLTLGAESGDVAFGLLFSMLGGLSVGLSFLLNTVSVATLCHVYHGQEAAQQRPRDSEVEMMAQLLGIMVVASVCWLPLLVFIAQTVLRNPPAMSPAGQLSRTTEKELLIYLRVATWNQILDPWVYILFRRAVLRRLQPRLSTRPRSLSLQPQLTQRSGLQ
As to the kind of experiment: Human Thromboxane A2 Receptor Binding Assay. Conditions: human platelets; 10 nM [3H]SQ29548; 1 hour, room temperature.
Description: The thromboxane A2 receptor (TP) plays a key role in hemostasis as its abnormality leads to bleeding disorders. To avoid the potential liability of bleeding disorders, the binding activity of certain compounds of the present invention against TP was monitored by a receptor binding assay using human platelets as the source of the receptor and [^3H]SQ29548 (generically named (5Z)-[5,6-^3H]-7-[(1S,2R,3R,4R)-3-[[2-[(phenylamino)carbonyl]hydrazinyl]methyl]-7-oxabicyclo[2.2.1]hept-2-yl]-5-heptenoic acid, from PerkinElmer Inc.) as the competing radioactive ligand.
The TP binding reactions (0.2 mL) were performed in 96-well plates at room temperature in PBS containing 5×10^7 platelets, 10 mM MgCl2, 0.06% BSA, 10 nM [^3H]SQ29548, and the test compound at various concentrations. After 1 hour of binding reactions, the platelets were harvested on GF/B filter plates (as previously described from PerkinElmer Inc.) and washed 5 times with PBS using a Filtermate™ Harvester (as previously described from PerkinElmer Inc.). The radioactivities bound to the platelets were determined using a microplate scintillation counter (TopCount® NXT, from PerkinElmer Inc.) after adding 50 μL of Microscint™ 20 scintillation fluid (from PerkinElmer Inc.) to each well of the filter plates. The radioactivity from non-specific binding was determined by replacing the compound with 10 μM of ramatroban (BAY-u3405, from Cayman Chemical Company) in the reaction mixtures. The radioactivity bound to the platelets in the absence of compound (total binding) was determined by replacing the compound with 0.25% of DMSO in the reaction mixture. Specific binding data were obtained by subtracting the radioactivity of non-specific binding from each binding data.
as §1

As for `CN([C@@H]1CCCc2c(OCC(=O)O)cccc21)S(=O)(=O)c1cc(Br)cc(C(F)(F)F)c1` [Example 1-5, {(R)-5-[(3-bromo-5-trifluoromethyl-benzenesulfonyl)-methyl-amino]-5,6,7,8-tetrahydro-naphthalen-1-yloxy}-acetic acid], the half-maximal inhibitory concentration (IC50) on human CRTH2 was 74.2 nM; in assay [1], greater than 10000 nM.
The matching figures for `CN([C@@H]1CCCc2c(OCC(=O)O)cccc21)S(=O)(=O)c1cc(C(F)(F)F)cc(C(F)(F)F)c1` [Example 1-6, {(R)-5-[(3,5-bis-trifluoromethyl-benzenesulfonyl)-methyl-amino]-5,6,7,8-tetrahydro-naphthalen-1-yloxy}-acetic acid]: 18.3 nM and greater than 10000 nM.
The matching figures for `CN([C@@H]1CCCc2c(OCC(=O)O)cccc21)S(=O)(=O)c1cc(N2CCCC2)cc(C(F)(F)F)c1` [Example 4-1, {(R)-5-[methyl-(3-pyrrolidin-1-yl-5-trifluoromethyl-benzenesulfonyl)-amino]-5,6,7,8-tetrahydro-naphthalen-1-yloxy}-acetic acid]: 127 nM and greater than 10000 nM.
With `CS(=O)(=O)c1cc(S(C)(=O)=O)cc(S(=O)(=O)N[C@@H]2CCCc3c(OCC(=O)O)cccc32)c1` [Example 10-9, [(R)-5-(3,5-bis-methanesulfonyl-benzenesulfonylamino)-5,6,7,8-tetrahydro-naphthalen-1-yloxy]-acetic acid], the half-maximal inhibitory concentration (IC50) on human CRTH2 was 9 nM; in assay [1], greater than 10000 nM.
On to `COc1cc(C(F)(F)F)cc(S(=O)(=O)N(C)[C@@H]2CCCc3c(OCC(=O)O)cccc32)c1` [Example 1-4, {(R)-5-[(3-methoxy-5-trifluoromethyl-benzenesulfonyl)-methyl-amino]-5,6,7,8-tetrahydro-naphthalen-1-yloxy}-acetic acid], for which the IC50 on human CRTH2 was 110 nM; in assay [1], greater than 10000 nM.
The matching figures for `CC(C)[S+]([O-])c1cc(C(F)(F)F)cc(S(=O)(=O)N(C)[C@@H]2CCCc3c(OCC(=O)O)cccc32)c1` (stereo partly drawn) [Example 2-1, ((R)-5-{methyl-[3-(propane-2-sulfinyl)-5-trifluoromethyl-benzenesulfonyl]-amino}-5,6,7,8-tetrahydro-naphthalen-1-yloxy)-acetic acid]: 6.8 nM and greater than 10000 nM.
Take `CN([C@@H]1CCCc2c(OCC(=O)O)cccc21)S(=O)(=O)c1cc(S(C)(=O)=O)cc(S(C)(=O)=O)c1` [Example 1-3, {(R)-5-[(3,5-bis-methanesulfonyl-benzenesulfonyl)-methyl-amino]-5,6,7,8-tetrahydro-naphthalen-1-yloxy}-acetic acid]: the IC50 was 15.7 nM on human CRTH2 and greater than 10000 nM in assay [1].
For `CC(C)N(C)c1cc(C(F)(F)F)cc(S(=O)(=O)N(C)[C@@H]2CCCc3c(OCC(=O)O)cccc32)c1` [Example 4-3, ((R)-5-{[3-(isopropyl-methyl-amino)-5-trifluoromethyl-benzenesulfonyl]-methyl-amino}-5,6,7,8-tetrahydro-naphthalen-1-yloxy)-acetic acid], in that order: 410 nM and greater than 10000 nM.
The matching figures for `CC(C)(C)c1cc(C(C)(C)C)cc(S(=O)(=O)N[C@@H]2CCCc3c(OCC(=O)O)cccc32)c1` [Example 10-8, [(R)-5-(3,5-di-tert-butyl-benzenesulfonylamino)-5,6,7,8-tetrahydro-naphthalen-1-yloxy]-acetic acid]: 31 nM and greater than 10000 nM.
For `CC(C)Oc1cc(C(F)(F)F)cc(S(=O)(=O)N(C)[C@@H]2CCCc3c(OCC(=O)O)cccc32)c1` [Example 9-1, {(R)-5-[(3-isopropoxy-5-trifluoromethyl-benzenesulfonyl)-methyl-amino]-5,6,7,8-tetrahydro-naphthalen-1-yloxy}-acetic acid], in that order: 147 nM and greater than 10000 nM.
On to `CN([C@@H]1CCCc2c(OCC(=O)O)cccc21)S(=O)(=O)c1cc(C(F)(F)F)cc(C2(C)CC2)c1` [Example 7-1, ((R)-5-{methyl-[3-(1-methyl-cyclopropyl)-5-trifluoromethyl-benzenesulfonyl]-amino}-5,6,7,8-tetrahydro-naphthalen-1-yloxy)-acetic acid], for which the IC50 on human CRTH2 is 76.6 nM; in assay [1] it was greater than 10000 nM.

Values taken from US20100041760A1, “MONOARYL AMINOTETRALINES” (priority 2008, published 2010).
